# According to patent US10144742B2 (Millennium Pharmaceuticals, Inc., priority 2014, dated 2018):
# Read-outs that look alike come from different tables or passages of the source.
# Columns and labels:
# [1] = target: hNAMPT protein (Homo sapiens (Human), UniProt P43490); assay: NAMPT enzyme assay (TR-FRET/HTRF, BodiPY ligand, anti 6His-Tb); format: binding; conditions: for IC50: read-out: IC50; for inhibition at 1 µM: read-out: Percent Inhibition
# Summary of the method: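 Compound or DMSO was incubated for 1 h at room temperature, protected from light, with BodiPY ligand and hNAMPT labelled by terbium anti-6His antibody. The 520 nm to 486 nm emission ratio after 320 nm excitation gave inhibition versus vehicle, from which concentration-response curves yielded IC50.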
# [2] = system: PC3 cells; assay: PC3 growth inhibition (Cell-titer glo, 72 hours); format: cell-based; conditions: Homo sapiens, PC-3, PC3 cells, 72 hours, Cell-titer glo, read-out: Percent Inhibition (PC3 growth inhibition); for inhibition at 1.667 µM: compound concentration 1.667 μM; for inhibition at 1 µM: compound concentration 1 μM
# Summary of the method: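 Compounds in AIM serum-free medium were applied for 72 h at 37 °C, 5% CO2 to PC3 cells plated overnight from RPMI1640 culture. Luminescence after 10 min CellTiter-Glo, normalised to DMSO, gave % viability at 1 μM or 1.667 μM, or GI50/LD50.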
# [3] = NAMPT inhibition at compound concentration 1 μM
# [4] = NAMPT inhibition, IC50 range class
# Sequence of hNAMPT protein (P43490 whole entry): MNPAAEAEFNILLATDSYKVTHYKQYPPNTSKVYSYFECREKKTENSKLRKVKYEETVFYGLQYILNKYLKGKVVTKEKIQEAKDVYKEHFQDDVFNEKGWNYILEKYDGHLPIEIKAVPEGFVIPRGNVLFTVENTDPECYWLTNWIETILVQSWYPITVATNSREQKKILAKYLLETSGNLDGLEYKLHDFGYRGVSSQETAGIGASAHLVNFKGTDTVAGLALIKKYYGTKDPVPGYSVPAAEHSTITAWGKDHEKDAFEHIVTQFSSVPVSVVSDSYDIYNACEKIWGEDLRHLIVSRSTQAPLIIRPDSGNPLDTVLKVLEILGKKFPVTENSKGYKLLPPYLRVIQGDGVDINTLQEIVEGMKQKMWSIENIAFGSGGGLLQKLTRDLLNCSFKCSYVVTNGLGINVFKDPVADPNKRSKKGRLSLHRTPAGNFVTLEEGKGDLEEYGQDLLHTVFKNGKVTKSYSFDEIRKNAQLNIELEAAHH
Compound,IC50 ([1]; NAMPT IC50 range class),inhibition at 1 µM [1],inhibition at 1.667 µM [2],inhibition at 1 µM ([1]; compound concentration 1 μM),inhibition at 1 µM [2],"inhibition at 1 µM [1, 3]","IC50 [1, 4]"
"O=C(NCCCc1cncnc1)c1ccc2nc(N3CCOCC3)c(-c3ccc(F)cc3)nc2c1 [Compound I-193, 3-(4-Fluorophenyl)-2-(morpholin-4-yl)-N-[3-(pyrimidin-5-yl)propyl]quinoxaline-6-carboxamide]",100 to 500 nM,73%,> 99%,,,,
"O=C(NCCCn1ccnc1)c1ccc2nc(NC3CCC3)c(-c3ccccc3)nc2c1 [Compound I-274, 2-(cyclobutylamino)-N-[3-(1H-imidazol-1-yl)propyl]-3-phenylquinoxaline-6-carboxamide]",2000 to 10000 nM,,,25%,-5%,,
"COc1cc(-c2nc3cc(C(=O)NCCCc4ncc[nH]4)ccc3nc2OC(C)C)c(F)cn1 [Compound I-392, 3-(5-fluoro-2-methoxypyridin-4-yl)-N-[3-(1H-imidazol-2-yl)propyl]-2-isopropoxyquinoxaline-6-carboxamide]",100 to 500 nM,,1%,91%,,,
"CC(C)Oc1nc2cc(F)c(C(=O)NCCCc3ncc[nH]3)cc2nc1-c1ccc(F)cc1 [Compound I-491, N-(3-(1H-imidazol-2-yl)propyl)-7-fluoro-3-(4-fluorophenyl)-2-isopropoxyquinoxaline-6-carboxamide]",,,4%,,,83%,100 to 500 nM
"NS(=O)(=O)c1cccc(-c2nc3ccc(C(=O)NCCCn4ccnc4)cc3nc2-c2ccccc2)c1 [Compound I-89, N-[3-(1H-imidazol-1-yl)propyl]-3-phenyl-2-(3-sulfamoylphenyl)quinoxaline-6-carboxamide]",100 to 500 nM,,,68%,-7%,,
"O=C(NCCCc1ncc[nH]1)c1ccc2nc(OCc3cccc(Cl)c3)c(-c3ccc(F)cc3)nc2c1 [Compound I-498, 2-[(3-chlorobenzyl)oxy]-3-(4-fluorophenyl)-N-[3-(1H-imidazol-2-yl)propyl]quinoxaline-6-carboxamide]",,,3%,,,84%,< 100 nM
"Nc1ccc(CCCNC(=O)c2ccc3nc(N4CCOCC4)c(-c4ccc(F)cc4)nc3c2)cn1 [Compound I-362, N-[3-(6-aminopyridin-3-yl)propyl]-3-(4-fluorophenyl)-2-(morpholin-4-yl)quinoxaline-6-carboxamide]",100 to 500 nM,,2%,74%,,,
"CC(C)Oc1nc2ccc(C(=O)NCCCc3ncc[nH]3)cc2nc1-c1ccc(Cl)cc1 [Compound I-222, 3-(4-chlorophenyl)-N-[3-(1H-imidazol-2-yl)propyl]-2-isopropoxyquinoxaline-6-carboxamide]",< 100 nM,,12%,92%,,,
"Cn1cc(-c2nc3ccc(C(=O)NCCCn4ccnc4)cc3nc2-c2ccccc2)cn1 [Compound I-119, N-[3-(1H-imidazol-1-yl)propyl]-2-(1-methyl-1H-pyrazol-4-yl)-3-phenylquinoxaline-6-carboxamide]",500 to 1000 nM,,,58%,-8%,,
"NCc1nc2ccc(C(=O)NCCCn3ccnc3)cc2nc1-c1ccccc1 [Compound I-10, 2-(aminomethyl)-N-[3-(1H-imidazol-1-yl)propyl]-3-phenylquinoxaline-6-carboxamide]",2000 to 10000 nM,,,23%,99%,,
"O=C(NCCCc1cccnc1)c1ccc2nc(N3CCC(O)CC3)c(-c3ccc(F)cc3)nc2c1 [Compound I-25, 3-(4-fluorophenyl)-2-(4-hydroxypiperidin-1-yl)-N-[3-(pyridin-3-yl)propyl]quinoxaline-6-carboxamide]",< 100 nM,,2%,98%,,,
"NC(=O)c1cn2c(n1)CN(C(=O)c1ccc3nc(-c4ccc(F)cc4)c(-c4ccc(F)cc4)nc3c1)CC2 [Compound I-123, 7-{[2,3-bis(4-fluorophenyl)quinoxalin-6-yl]carbonyl}-5,6,7,8-tetrahydroimidazo[1,2-a]pyrazine-2-carboxamide]",2000 to 10000 nM,,,31%,96%,,
"CCOc1ccc(F)c(-c2nc3cc(C(=O)NCCCc4ncc[nH]4)ccc3nc2-c2ccc(F)cc2)c1 [Compound I-343, 3-(5-ethoxy-2-fluorophenyl)-2-(4-fluorophenyl)-N-[3-(1H-imidazol-2-yl)propyl]quinoxaline-6-carboxamide]",100 to 500 nM,,1%,82%,,,
"O=C(NCCCc1ncc[nH]1)c1ccc2nc(N3CC4(CCOCC4)C3)c(-c3ccc(F)cc3)nc2c1 [Compound I-288, 3-(4-fluorophenyl)-N-[3-(1H-imidazol-2-yl)propyl]-2-(7-oxa-2-azaspiro[3.5]non-2-yl)quinoxaline-6-carboxamide]",< 100 nM,,2%,> 99%,,,
"O=C(NCCCc1ncc[nH]1)c1ccc2nc(OCc3ncc[nH]3)c(-c3ccc(F)cc3)nc2c1 [Compound I-459, 3-(4-fluorophenyl)-2-(1H-imidazol-2-ylmethoxy)-N-[3-(1H-imidazol-2-yl)propyl]quinoxaline-6-carboxamide]",,,> 99%,,,47%,500 to 1000 nM
"O=C(NCCCc1ncc[nH]1)c1ccc2nc(OC3CCCNC3)c(-c3ccc(F)cc3)nc2c1 (stereo not drawn) [Compound I-430, 3-(4-fluorophenyl)-N-[3-(1H-imidazol-2-yl)propyl]-2-(piperidin-3-yloxy)quinoxaline-6-carboxamide]",,,3%,,,98%,< 100 nM
"O=C(NCCCn1nnnc1S)c1ccc2nc(-c3ccc(F)cc3)c(-c3ccc(F)cc3)nc2c1 [Compound I-8, 2,3-bis(4-fluorophenyl)-N-[3-(5-sulfanyl-1H-tetrazol-1-yl)propyl]quinoxaline-6-carboxamide]",1000 to 2000 nM,,,43%,103%,,
"C[C@@H]1CN(c2nc3cc(C(=O)NCCCn4ccnc4)ccc3nc2-c2ccccc2)C[C@H](C)O1 [Compound I-34, cis-3-[(2R,6S)-2,6-dimethylmorpholin-4-yl]-N-[3-(1H-imidazol-1-yl)propyl]-2-phenylquinoxaline-6-carboxamide]",1000 to 2000 nM,,,47%,-6%,,
"Cc1ccc(-c2nc3cc(C(=O)NCCCc4ncc[nH]4)ccc3nc2-c2ccc(F)cc2)cc1 [Compound I-497, 2-(4-fluorophenyl)-N-[3-(1H-imidazol-2-yl)propyl]-3-(4-methylphenyl)quinoxaline-6-carboxamide]",,,2%,,,80%,100 to 500 nM
"Cc1cc(-c2nc3cc(C(=O)NCCCc4ncc[nH]4)ccc3nc2-c2ccc(F)cc2)c(C)s1 [Compound I-422, 3-(2,5-dimethyl-3-thienyl)-2-(4-fluorophenyl)-N-[3-(1H-imidazol-2-yl)propyl]quinoxaline-6-carboxamide]",,,3%,,,92%,< 100 nM
"O=C(NCCCc1ncc[nH]1)c1ccc2nc(N3CCS(=O)(=O)CC3)c(-c3ccc(F)cc3)nc2c1 [Compound I-287, 2-(1,1-dioxidothiomorpholin-4-yl)-3-(4-fluorophenyl)-N-[3-(1H-imidazol-2-yl)propyl]quinoxaline-6-carboxamide]",< 100 nM,,2%,98%,,,
"COc1cc(-c2nc3cc(C(=O)NCc4nc5cnccc5[nH]4)ccc3nc2-c2ccc(F)cc2)c(F)cn1 [Compound I-516, 3-(5-fluoro-2-methoxypyridin-4-yl)-2-(4-fluorophenyl)-N-(1H-imidazo[4,5-c]pyridin-2-ylmethyl)quinoxaline-6-carboxamide]",,,1%,,,93%,< 100 nM
"Cc1nn(C)cc1-c1nc2cc(C(=O)NCCCc3ncc[nH]3)ccc2nc1-c1ccc(F)cc1 [Compound I-475, 3-(1,3-dimethyl-1H-pyrazol-4-yl)-2-(4-fluorophenyl)-N-[3-(1H-imidazol-2-yl)propyl]quinoxaline-6-carboxamide]",,,3%,,,77%,100 to 500 nM
"O=C(NCCCc1ncc[nH]1)c1ccc2nc(OCc3ccccc3Cl)c(-c3ccc(F)cc3)nc2c1 [Compound I-454, 2-[(2-chlorobenzyl)oxy]-3-(4-fluorophenyl)-N-[3-(1H-imidazol-2-yl)propyl]quinoxaline-6-carboxamide]",,,2%,,,95%,< 100 nM
"Cc1cncc(-c2nc3cc(C(=O)NCCCc4ncc[nH]4)ccc3nc2-c2ccc(F)cc2)c1 [Compound I-394, 2-(4-fluorophenyl)-N-[3-(1H-imidazol-2-yl)propyl]-3-(5-methylpyridin-3-yl)quinoxaline-6-carboxamide]",100 to 500 nM,,3%,74%,,,
"COc1cc(-c2nc3cc(C(=O)NCc4ccc5nccn5c4)ccc3nc2OC(C)C)ccc1F [Compound I-426, 3-(4-fluoro-3-methoxyphenyl)-N-(imidazo[1,2-a]pyridin-6-ylmethyl)-2-isopropoxyquinoxaline-6-carboxamide]",,,0%,,,99%,< 100 nM
